Measurements from ChEMBL document CHEMBL1124978, “Direct C-glycosylation of guanine analogues: the synthesis and antiviral activity of certain 7- and 9-deazaguanine C-nucleosides” (1990).

How the values were obtained:
Assay type in all cases: functional
Conditions in all cases: route intraperitoneal
Mus musculus [1] = experiment: Tested against Forest virus infection in mice at dose 100 mg/kg administered intraperitoneally; 1/12(8)
Mus musculus [2] = experiment: Tested against Forest virus infection in mice at dose 100 mg/kg administered intraperitoneally
Mus musculus [3] = experiment: Tested against Forest virus infection in mice at dose 100 mg/kg administered intraperitoneally; 10/12(83)
Mus musculus [4] = experiment: Tested against Forest virus infection in mice at dose 100 mg/kg administered intraperitoneally; 0/12(0)
Mus musculus [5] = experiment: Tested against Forest virus infection in mice at dose 100 mg/kg administered intraperitoneally; 7/12(58)
Mus musculus [6] = experiment: Tested against Forest virus infection in mice at dose 100 mg/kg administered intraperitoneally in experiment 1
Mus musculus [7] = experiment: Tested against Forest virus infection in mice at dose 100 mg/kg administered intraperitoneally in experiment 2
Mus musculus [8] = experiment: Tested against Forest virus infection in mice at dose 100 mg/kg administered intraperitoneally in experiment 3
Mus musculus [9] = experiment: Tested against Forest virus infection in mice at dose 100 mg/kg administered intraperitoneally in experiment 2; 11/12(92)
Mus musculus [10] = experiment: Tested against Forest virus infection in mice at dose 100 mg/kg administered intraperitoneally in experiment 1; 9/12(75)
Mus musculus [11] = experiment: Tested against Forest virus infection in mice at dose 100 mg/kg administered intraperitoneally in experiment 3; 11/12(92)

## NC1=NC(=O)C2NC=C([C@@H]3O[C@H](CO)[C@@H](O)[C@H]3O)C2=N1 (stereo partly specified)
Mus musculus [1]
  Survivors / total: 8.33%
Mus musculus [2]
  Mean survival time: 7.3 days

## CN1C(Cl)=C([C@@H]2O[C@H](CO)[C@@H](O)[C@H]2O)C2=NC(N)=NC(=O)C21 (stereo partly specified)
Mus musculus [3]
  Survivors / total: 10%
Mus musculus [2]
  Mean survival time: 11 days

## CN1C=C([C@@H]2O[C@H](CO)[C@@H](O)[C@H]2O)C2=NC(N)=NC(=O)C21 (stereo partly specified)
Mus musculus [1]
  Survivors / total: 8.33%
Mus musculus [2]
  Mean survival time: 8.1 days

## CC1=C([C@@H]2O[C@H](CO)[C@@H](O)[C@H]2O)C2C(=O)N=C(N)N=C2N1 (stereo partly specified)
Mus musculus [4]
  Survivors / total: 0%
Mus musculus [2]
  Mean survival time: 7.2 days

## CN1C(Br)=C([C@@H]2O[C@H](CO)[C@@H](O)[C@H]2O)C2=NC(N)=NC(=O)C21 (stereo partly specified)
Mus musculus [5]
  Survivors / total: 7%
Mus musculus [2]
  Mean survival time: 7 days

## Nc1nc(=O)c2sc(=O)n([C@@H]3O[C@H](CO)[C@@H](O)[C@H]3O)c2[nH]1 [ISATORIBINE]
Mus musculus [6]
  Mean survival time: 8.3 days
Mus musculus [7]
  Mean survival time: 10 days
Mus musculus [8]
  Mean survival time: 9 days
Mus musculus [9]
  Survivors / total: 91.7%
Mus musculus [10]
  Survivors / total: 75%
Mus musculus [11]
  Survivors / total: 91.7%
